# According to ChEMBL document CHEMBL4325853, “Design, synthesis and antibacterial evaluation of 2,4-disubstituted-6-thiophenyl-pyrimidines” (Eur J Med Chem, 2019):
# The source made the active and inactive calls. No cut-off for these calls is given here.
# Assays:
# Enterococcus faecium [1] = assay: Antibacterial activity against Enterococcus faecium ATCC 49624 after 18 hrs by broth microdilution method; format: functional; conditions: ATCC 49624, 18 h
# Enterococcus faecalis [2] = assay: Antibacterial activity against Enterococcus faecalis ATCC 29212 after 18 hrs by broth microdilution method; format: functional; conditions: ATCC 29212, 18 h
# [3] = system: Staphylococcus epidermidis; assay: Potency index, ratio of berberine MIC to test compound MIC for Staphylococcus epidermidis ATCC 12228; format: functional
# Staphylococcus aureus [4] = assay: Potency index, ratio of berberine MIC to test compound MIC for Staphylococcus aureus ATCC 29213; format: functional
# [5] = system: Staphylococcus epidermidis; assay: Antibacterial activity against Staphylococcus epidermidis ATCC 12228 after 18 hrs by broth microdilution method; format: functional; conditions: ATCC 12228, 18 h
# Staphylococcus aureus [6] = assay: Antibacterial activity against Staphylococcus aureus ATCC 29213 after 18 hrs by broth microdilution method; format: functional; conditions: ATCC 29213, 18 h
# Enterococcus faecalis [7] = assay: Potency index, ratio of berberine MIC to test compound MIC for Enterococcus faecalis ATCC 29212; format: functional
# Enterococcus faecium [8] = assay: Potency index, ratio of berberine MIC to test compound MIC for Enterococcus faecium ATCC 49624; format: functional
# Escherichia coli = assay: Antibacterial activity against Escherichia coli ATCC 25922 after 18 hrs by broth microdilution method; format: functional; conditions: ATCC 25922, 18 h
# Bacillus subtilis = assay: Antibacterial activity against Bacillus subtilis 168 after 18 hrs by broth microdilution method; format: functional; conditions: subsp. subtilis str. 168, 18 h
# Staphylococcus aureus [9] = assay: Ratio of MIC for Staphylococcus aureus ATCC 29213 after and before 11 to 21 serial passages; format: functional
# Staphylococcus aureus [10] = assay: Antibacterial activity against Staphylococcus aureus ATCC 29213 after 10 passages by broth microdilution method; format: functional, organism-based
# [11] = target: T1, Cell division protein FtsZ (Staphylococcus aureus) (UniProt P0A031); assay: Inhibition of recombinant Staphylococcus aureus FtsZ polymerization at 8 ug/ml by 90 degree light scattering-based fluorescence spectrometric analysis
# T1 sequence (whole entry): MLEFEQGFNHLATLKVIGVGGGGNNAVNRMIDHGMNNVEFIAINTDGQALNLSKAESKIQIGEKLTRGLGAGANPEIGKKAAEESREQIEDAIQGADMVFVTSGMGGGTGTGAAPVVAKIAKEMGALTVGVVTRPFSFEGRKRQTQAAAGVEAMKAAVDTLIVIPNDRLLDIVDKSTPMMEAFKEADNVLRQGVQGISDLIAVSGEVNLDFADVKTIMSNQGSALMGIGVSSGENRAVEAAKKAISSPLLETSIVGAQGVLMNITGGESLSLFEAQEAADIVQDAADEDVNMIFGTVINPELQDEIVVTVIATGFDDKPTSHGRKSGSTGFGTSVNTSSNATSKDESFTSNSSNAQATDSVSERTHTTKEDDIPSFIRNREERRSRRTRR
# [12] = target: T1, Cell division protein FtsZ (Staphylococcus aureus); assay: Inhibition of recombinant Staphylococcus aureus FtsZ GTPase activity assessed as reduction in inorganic phosphate formation after 30 mins by colorimetric method
# Staphylococcus aureus [13] = assay: Antibacterial activity against methicillin-resistant Staphylococcus aureus ATCC BAA41 after 18 hrs by broth microdilution method; format: functional; conditions: ATCC BAA41, 18 h
# Staphylococcus aureus [14] = assay: Antibacterial activity against methicillin-resistant Staphylococcus aureus ATCC BAA1720 after 18 hrs by broth microdilution method; format: functional; conditions: ATCC BAA1720, 18 h
# Staphylococcus aureus [15] = assay: Antibacterial activity against methicillin-resistant Staphylococcus aureus ATCC 43300 after 18 hrs by broth microdilution method; format: functional; conditions: ATCC 43300, 18 h
# Staphylococcus aureus [16] = assay: Antibacterial activity against methicillin-resistant Staphylococcus aureus ATCC 33592 after 18 hrs by broth microdilution method; format: functional; conditions: ATCC 33592, 18 h
# Enterococcus faecalis [17] = assay: Antibacterial activity against vancomycin-resistant Enterococcus faecalis ATCC 51575 after 18 hrs by broth microdilution method; format: functional; conditions: ATCC 51575, 18 h
# Enterococcus faecalis [18] = assay: Antibacterial activity against vancomycin-resistant Enterococcus faecalis ATCC 700221 after 18 hrs by broth microdilution method; format: functional; conditions: ATCC 700221, 18 h
# Staphylococcus aureus [19] = assay: Antibacterial activity against methicillin-resistant Staphylococcus aureus ATCC 33591 after 18 hrs by broth microdilution method; format: functional; conditions: ATCC 33591, 18 h
MIC90 (Enterococcus faecium [1]) [µg/mL],MIC90 (Enterococcus faecalis [2]) [µg/mL],MIC90 [5] [µg/mL],MIC90 (Staphylococcus aureus [6]) [µg/mL],MIC90 (Escherichia coli) [µg/mL],MIC90 (Bacillus subtilis) [µg/mL],Structure (SMILES),other results
16,16,8,8,> 128,8,Fc1ccc(CN2CCCN(CCc3cc(-c4cccs4)nc(-c4ccncc4)n3)CC2)cc1,Ratio [3]: 50 - 100; Ratio (Staphylococcus aureus [4]): 50 - 100; Ratio (Enterococcus faecalis [7]): 50 - 100; Ratio (Enterococcus faecium [8]): 50 - 100
64,64,32,32,128,64,Cc1nc(CCN2CCCN(Cc3ccc(C(C)(C)C)cc3)CC2)cc(-c2cccs2)n1,–
> 192,> 192,> 192,> 192,> 192,> 192,Cc1nc(CCN2CCN(c3ccc(C(F)(F)F)cc3)CC2)cc(-c2cccs2)n1,–
192,192,128,128,> 192,128,Cc1nc(CCN2CCCN(Cc3ccc(F)cc3)CC2)cc(-c2cccs2)n1,–
8,8,4,4,128,4,Brc1ccc(CN2CCCN(CCc3cc(-c4cccs4)nc(-c4ccncc4)n3)CC2)cc1,Ratio [3]: 50 - 100; Ratio (Staphylococcus aureus [4]): 50 - 100; Ratio (Enterococcus faecalis [7]): 50 - 100; Ratio (Enterococcus faecium [8]): 50 - 100
> 192,> 192,> 192,> 192,> 192,> 192,Cc1nc(CCN2CCNCC2)cc(-c2cccs2)n1,–
> 192,> 192,> 192,> 192,> 192,> 192,Cc1nc(CCN2C[C@@H]3C[C@H]2CN3C(=O)OC(C)(C)C)cc(-c2cccs2)n1,–
16,16,8,8,> 128,8,Fc1cccc(CN2CCCN(CCc3cc(-c4cccs4)nc(-c4ccncc4)n3)CC2)c1,Ratio [3]: 50 - 100; Ratio (Staphylococcus aureus [4]): 50 - 100; Ratio (Enterococcus faecalis [7]): 50 - 100; Ratio (Enterococcus faecium [8]): 50 - 100
32,32,16,16,> 128,16,c1ccc(CN2CCCN(CCc3cc(-c4cccs4)nc(-c4ccncc4)n3)CC2)cc1,Ratio [3]: 50 - 100; Ratio (Staphylococcus aureus [4]): 50 - 100; Ratio (Enterococcus faecalis [7]): 50 - 100; Ratio (Enterococcus faecium [8]): 50 - 100
> 192,> 192,192,192,> 192,192,Cc1nc(CCN2CCCN(Cc3ccccc3F)CC2)cc(-c2cccs2)n1,–
> 192,> 192,192,192,> 192,192,Cc1ccc(CN2CCN(CCc3cc(-c4cccs4)nc(C)n3)CC2)cc1,–
> 192,> 192,192,192,> 192,192,Cc1nc(CCN2CCN(Cc3ccc(F)cc3)CC2)cc(-c2cccs2)n1,–
> 192,> 192,> 192,> 192,> 192,> 192,Cc1nc(CCNCCN2CCCC2)cc(-c2cccs2)n1,–
> 192,> 192,> 192,> 192,> 192,> 192,Cc1nc(CCN(C)CCN(C)Cc2ccccc2)cc(-c2cccs2)n1,–
> 192,> 192,> 192,> 192,> 192,> 192,Cc1nc(CCN2CCN(C(=O)OC(C)(C)C)CC2)cc(-c2cccs2)n1,–
> 192,> 192,> 192,> 192,> 192,> 192,Cc1nc(CCN2CCN(Cc3ccccc3)CC2)cc(-c2cccs2)n1,–
192,192,128,128,> 192,128,Cc1nc(CCN2CCCN(Cc3cccc(F)c3)CC2)cc(-c2cccs2)n1,–
> 192,> 192,> 192,> 192,> 192,> 192,Cc1nc(CCNCCN2CCOCC2)cc(-c2cccs2)n1,–
> 192,> 192,> 192,> 192,> 192,> 192,Cc1nc(CCNCCN2CCCCC2)cc(-c2cccs2)n1,–
128,128,128,128,> 192,128,Cc1nc(CCN2CCCN(Cc3ccc(F)c(F)c3)CC2)cc(-c2cccs2)n1,–
8,8,4,4,128,4,Fc1ccc(CN2CCCN(CCc3cc(-c4cccs4)nc(-c4ccncc4)n3)CC2)cc1F,Ratio [3]: 50 - 100; Ratio (Staphylococcus aureus [4]): 50 - 100; Ratio (Enterococcus faecalis [7]): 50 - 100; Ratio (Enterococcus faecium [8]): 50 - 100
> 192,> 192,192,192,> 192,192,Cc1nc(CCN2CCCN(Cc3ccccc3)CC2)cc(-c2cccs2)n1,–

Structure (SMILES),MIC90 (Enterococcus faecium [1]) [µg/mL],MIC90 (Enterococcus faecalis [2]) [µg/mL],MIC90 [5] [µg/mL],MIC90 (Staphylococcus aureus [6]) [µg/mL],MIC90 (Escherichia coli) [µg/mL],MIC90 (Bacillus subtilis) [µg/mL],other results
Cc1nc(-c2cccs2)cc([C@H]2CN3CC[C@H]2C[C@@H]3CNC(=O)CCCC(=O)O)n1,> 192,> 192,192,192,384,192,–
Cc1nc(CCN2C[C@@H]3C[C@H]2CN3)cc(-c2cccs2)n1,> 192,> 192,> 192,> 192,> 192,> 192,–
Cc1nc(CCN2CCCN(Cc3ccc(C(C)C)cc3)CC2)cc(-c2cccs2)n1,64,64,32,32,128,64,Activity (Staphylococcus aureus [9]): Active; Activity (Staphylococcus aureus [10]): Active; inhibition [11]: Active; inhibition [12]: Dose-dependent effect
COc1ccc2cc3[n+](cc2c1OC)CCc1cc2c(cc1-3)OCO2 [BERBERINE],> 192,> 192,96,128,> 192,128,MIC90 (Staphylococcus aureus [13]): 192 µg/mL; MIC90 (Staphylococcus aureus [14]): 192 µg/mL; MIC90 (Staphylococcus aureus [15]): 192 µg/mL; MIC90 (Staphylococcus aureus [16]): 192 µg/mL; MIC90 (Enterococcus faecalis [17]): > 192 µg/mL; MIC90 (Enterococcus faecalis [18]): > 192 µg/mL; MIC90 (Staphylococcus aureus [19]): 192 µg/mL
